Data: ChEMBL document CHEMBL4706484, “Apigenin-rivastigmine hybrids as multi-target-directed liagnds for the treatment of Alzheimer's disease” (Eur J Med Chem, 2020)
Calls of active or inactive are those of the source. The rule behind the calls is not given here.

Key:
[1] = Acute toxicity in 2 dpf zebrafish assessed as abnormal intestine at 1.39 to 12.5 ug/ml measured after 3 days; format: tissue-based, Danio rerio; settings: in vivo, 72 h, dose 1.39-12.5 µg/ml, time 3 day
Danio rerio [2] = species on record: Danio rerio; experiment: Antialzheimer activity against 3 dpf zebrafish model of AlCl3-induced AD assessed as motility by measuring efficacy on speed change at 4.2 ug/ml relative to control; format: functional; settings: dose 4.2 µg/ml
[3] = Antioxidant activity of compound assessed as trolox equivalent antioxidant capacity by ORAC-FL assay; format: functional
[4] = Acute toxicity in 2 dpf zebrafish assessed as death at 1.39 to 12.5 ug/ml measured after 3 days; design: species or system Danio rerio; settings: in vivo, 72 h, dose 1.39-12.5 µg/ml, time 3 day
[5] = Acute toxicity in 2 dpf zebrafish assessed as slow blood flow at 1.39 to 12.5 ug/ml measured after 3 days; format: tissue-based, Danio rerio; settings: 72 h, dose 1.39-12.5 µg/ml, time 3 day
Acetylcholinesterase = biological target: T1, Acetylcholinesterase (Rattus norvegicus, UniProt P37136); experiment: Inhibition of rat cortex AChE using acetylthiocholine iodide as substrate measured after 15 mins by Ellman's method; format: tissue-based
T1 sequence (P37136 whole entry): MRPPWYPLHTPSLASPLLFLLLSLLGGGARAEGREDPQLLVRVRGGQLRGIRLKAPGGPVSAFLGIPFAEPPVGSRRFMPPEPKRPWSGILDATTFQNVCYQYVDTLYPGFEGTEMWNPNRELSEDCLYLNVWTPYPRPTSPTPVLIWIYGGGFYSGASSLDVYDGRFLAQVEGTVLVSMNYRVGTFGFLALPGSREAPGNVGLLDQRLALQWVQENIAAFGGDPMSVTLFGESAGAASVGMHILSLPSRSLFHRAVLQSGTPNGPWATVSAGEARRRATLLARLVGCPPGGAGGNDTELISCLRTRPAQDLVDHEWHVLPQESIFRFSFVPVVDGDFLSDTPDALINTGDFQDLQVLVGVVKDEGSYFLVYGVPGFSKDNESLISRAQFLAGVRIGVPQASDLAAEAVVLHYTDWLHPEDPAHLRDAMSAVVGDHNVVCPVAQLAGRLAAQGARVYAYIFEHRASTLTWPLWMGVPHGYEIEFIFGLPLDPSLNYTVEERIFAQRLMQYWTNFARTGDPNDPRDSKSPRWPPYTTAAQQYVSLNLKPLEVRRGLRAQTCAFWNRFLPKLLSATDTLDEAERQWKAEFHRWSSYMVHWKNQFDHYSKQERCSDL

Cholinesterase [6] = biological target: T2, Cholinesterase (Homo sapiens, UniProt P06276); experiment: Pseudo-irreversible inhibition of human serum BChE assessed as enzyme recovery activity at 0.1 times IC50 measured immediately using diluted compound; format: cell-free; design: scale not given: the % may be the effect or the level left
T2 sequence (P06276 whole entry): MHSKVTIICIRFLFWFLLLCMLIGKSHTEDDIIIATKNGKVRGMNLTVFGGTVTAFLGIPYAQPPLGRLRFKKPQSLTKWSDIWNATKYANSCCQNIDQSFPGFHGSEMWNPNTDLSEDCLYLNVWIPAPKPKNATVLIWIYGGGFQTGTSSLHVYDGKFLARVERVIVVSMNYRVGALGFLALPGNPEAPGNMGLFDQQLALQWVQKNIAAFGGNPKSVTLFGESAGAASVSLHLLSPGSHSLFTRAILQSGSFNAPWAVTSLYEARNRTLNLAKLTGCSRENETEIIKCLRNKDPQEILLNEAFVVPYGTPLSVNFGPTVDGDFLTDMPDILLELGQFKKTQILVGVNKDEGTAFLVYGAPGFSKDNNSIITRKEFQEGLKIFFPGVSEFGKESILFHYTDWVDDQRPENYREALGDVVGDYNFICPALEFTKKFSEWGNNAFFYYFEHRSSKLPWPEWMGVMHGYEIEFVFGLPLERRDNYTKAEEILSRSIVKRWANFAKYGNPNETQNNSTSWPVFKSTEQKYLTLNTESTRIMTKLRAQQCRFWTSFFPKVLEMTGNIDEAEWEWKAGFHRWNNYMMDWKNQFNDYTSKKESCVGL

PC-12 = experiment: Neuroprotective activity against H2O2-induced cell injury in rat PC-12 cells assessed as increase in cell viability causing decrease in LDH content preincubated for 2 hrs followed by H2O2 addition and measured after 24 hrs by LDH assay; format: functional, cell-based; settings: dose 5-10 µM, time 26.0 hrs
Danio rerio [7] = species on record: Danio rerio; experiment: Protection against amyloid beta (1 to 40 residues)-induced vascular injury in transgenic zebrafish assessed as efficacy on motility at 4.2 ug/ml relative to control; format: functional; settings: dose 4.2 µg/ml
Mus musculus [8] = experiment: Cognitive enhancing effect in scopolamine-induced Kunming mouse model of memory impairment assessed as effect on total arm entries at 5 to 20 mg/kg by Y-maze test; format: functional, organism-based; settings: dose 5-20 mg/kg
Mus musculus [9] = experiment: Antialzheimer activity in scopolamine-induced Kunming mouse model of memory impairment assessed as Q30 bases ratio (QC data) in brain hippocampus at 10 mg/kg by illumina sequencing method (reference value: 96.67 %); format: functional
[10] = Metal chelating activity assessed as Al3+-compound complex formation by measuring absorption wavelength at 37.5 uM in presence of 37.5 uM AlCl3 by UV-Vis spectrophotometric analysis
[11] = Acute toxicity in 2 dpf zebrafish assessed as abnormal liver size at 1.39 to 12.5 ug/ml measured after 3 days; design: species or system Danio rerio; settings: in vivo, 72 h, dose 1.39-12.5 µg/ml, time 3 day
[12] = Inhibition of copper-induced amyloid beta (1 to 42) (unknown origin) aggregation measured after 24 hrs by TEM analysis
Danio rerio [13] = species on record: Danio rerio; experiment: Antialzheimer activity against 3 dpf zebrafish model of AlCl3-induced AD assessed as efficacy on motility distance at 12.5 ug/ml relative to control; format: functional; settings: dose 12.5 µg/ml
[14] = Acute toxicity in Kunming mouse assessed as abnormal behavior at 1000 mg/kg; format: organism-based; settings: in vivo
Mus musculus [15] = experiment: Antialzheimer activity in scopolamine-induced Kunming mouse model of memory impairment assessed as total mapped in brain hippocampus at 10 mg/kg by illumina sequencing method (reference value: 97.13 %); format: functional
[16] = Acute toxicity in Kunming mouse assessed as hypokinesia at 2000 mg/kg; format: organism-based; settings: in vivo
Mus musculus [17] = experiment: Antialzheimer activity in scopolamine-induced Kunming mouse model of memory impairment assessed as GC bases ratio (QC data) in brain hippocampus at 10 mg/kg by illumina sequencing method (reference value: 53.64 %); format: functional
Mus musculus [18] = experiment: Reversal of scopolamine-induced Kunming mouse model of memory impairment assessed as spontaneous alteration at 20 mg/kg by Y-maze test (reference value: 41.6 %); format: functional
[19] = Acute toxicity in Kunming mouse at 1000 mg/kg; format: organism-based; settings: in vivo
Danio rerio [20] = species on record: Danio rerio; experiment: Protection against amyloid beta (1 to 40 residues)-induced vascular injury in transgenic zebrafish assessed as efficacy on motility at 1.4 ug/ml relative to control; format: functional; settings: dose 1.4 µg/ml
Danio rerio [21] = species on record: Danio rerio; experiment: Antialzheimer activity against 3 dpf zebrafish model of AlCl3-induced AD assessed as motility by measuring efficacy on speed change at 12.5 ug/ml relative to control; format: functional; settings: dose 12.5 µg/ml
Danio rerio [22] = species on record: Danio rerio; experiment: Antialzheimer activity against 3 dpf zebrafish model of AlCl3-induced AD assessed as change in motility distance at 12.5 ug/ml (reference value: 5204 mm); format: functional; settings: dose 12.5 µg/ml
Danio rerio [23] = species on record: Danio rerio; experiment: Protection against amyloid beta (1 to 40 residues)-induced vascular injury in transgenic zebrafish assessed as vascular injury rate at 4.2 ug/ml (reference value: 73.3 %); format: functional; settings: dose 4.2 µg/ml
SH-SY5Y [24] = experiment: Neuroprotective activity against amyloid beta (1 to 42 residues)-induced cell injury in human SH-SY5Y cells assessed as cell viability at 5 uM preincubated for 2 hrs followed by H2O2 addition and measured after 24 hrs by MTT assay (reference value: 52.3 %); format: functional; settings: time 26 hrs, read-out: Activity
Cholinesterase [25] = biological target: T2, Cholinesterase; experiment: Pseudo-irreversible inhibition of human serum BChE assessed as enzyme recovery activity at IC50 using diluted compound relative to control; format: cell-free; design: scale not given: the % may be the effect or the level left
[26] = Drug metabolism in human liver microsomes assessed as metabolite formation by UPLC-MS/MS analysis; format: ADME, Microsome
[27] = biological target: Amyloid-beta precursor protein (Homo sapiens) (UniProt P05067); experiment: Disaggregation of self-induced amyloid beta (1 to 42) (unknown origin) preformed fibrils at 25 uM by ThT fluorescence assay relative to control
Chain of Amyloid-beta precursor protein (Homo sapiens) (P05067 whole entry, the tested form may be a part): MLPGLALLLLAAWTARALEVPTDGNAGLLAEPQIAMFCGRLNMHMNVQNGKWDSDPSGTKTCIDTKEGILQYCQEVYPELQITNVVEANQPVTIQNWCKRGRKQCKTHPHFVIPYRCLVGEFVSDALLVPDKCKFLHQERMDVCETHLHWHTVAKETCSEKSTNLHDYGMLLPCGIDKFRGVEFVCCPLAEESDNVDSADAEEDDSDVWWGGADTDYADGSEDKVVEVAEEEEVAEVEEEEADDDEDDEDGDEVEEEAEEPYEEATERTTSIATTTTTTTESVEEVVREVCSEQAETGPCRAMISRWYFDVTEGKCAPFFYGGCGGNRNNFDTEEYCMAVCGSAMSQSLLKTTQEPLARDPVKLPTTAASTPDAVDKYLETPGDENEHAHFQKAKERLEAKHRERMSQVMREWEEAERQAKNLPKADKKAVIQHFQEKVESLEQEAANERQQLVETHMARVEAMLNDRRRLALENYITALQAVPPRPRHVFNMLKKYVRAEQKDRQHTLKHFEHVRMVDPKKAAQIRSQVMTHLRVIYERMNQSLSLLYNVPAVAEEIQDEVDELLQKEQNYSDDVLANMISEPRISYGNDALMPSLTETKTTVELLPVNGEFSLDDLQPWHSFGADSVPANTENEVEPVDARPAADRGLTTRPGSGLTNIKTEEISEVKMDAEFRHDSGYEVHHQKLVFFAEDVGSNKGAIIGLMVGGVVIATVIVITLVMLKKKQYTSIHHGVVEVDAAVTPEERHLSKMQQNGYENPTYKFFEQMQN

SH-SY5Y [28] = experiment: Neuroprotective activity against amyloid beta (1 to 42 residues)-induced cell injury in human SH-SY5Y cells assessed as cell viability at 10 uM preincubated for 2 hrs followed by H2O2 addition and measured after 24 hrs by MTT assay (reference value: 52.3 %); format: functional; settings: time 26 hrs, read-out: Activity
Mus musculus [29] = experiment: Antialzheimer activity in scopolamine-induced Kunming mouse model of memory impairment assessed as uniquely mapped in brain hippocampus at 10 mg/kg by illumina sequencing method (reference value: 94.54 %); format: functional

CCN(C)C(=O)Oc1ccc(-c2cc(=O)c3c(O)cc(OC(=O)N(C)CC)cc3o2)cc1
Activity [1]: Non-Toxic
Efficacy (Danio rerio [2]): 72%
Activity [3]: 1.3 equiv
Activity [4]: Non-Toxic
Activity [5]: Non-Toxic
IC50 (Acetylcholinesterase): 4.7 µM
Activity (Cholinesterase [6]): 44.8%
Activity (PC-12): Dose-dependent effect
Efficacy (Danio rerio [7]): 27%
Activity (Mus musculus [8]): inactive
Activity (Mus musculus [9]): 96.43%
Activity [10]: 384 nm
Activity [11]: Non-Toxic
inhibition [12]: Active
Efficacy (Danio rerio [13]): 73%
Activity [14]: Non-Toxic
Activity (Mus musculus [15]): 96.87%
Activity [16]: Toxic
Activity (Mus musculus [17]): 60.72%
Activity (Mus musculus [18]): 57.1%
Activity [19]: Non-Toxic
Efficacy (Danio rerio [20]): 18%
Efficacy (Danio rerio [21]): 87%
Activity (Danio rerio [22]): 6733 mm
Activity (Danio rerio [23]): 53%
viability at 5 µM (SH-SY5Y [24]): 63.9%
Activity (Cholinesterase [25]): 54.1%
Drug metabolism [26]: Metabolite_Detected
Activity [27]: 66.2%
viability at 10 µM (SH-SY5Y [28]): 72.3%
Activity (Mus musculus [29]): 93.76%
